Laboratory results reported in patent US4485039A, “Synthetic analogues of α-melanotropin” (University Patents, Inc., priority 1982, dated 1984).
Blank lines part the entries; values can stand above or below the compound they belong to. Positions of bridges follow the written chain, without caps; N, C: chain ends. Residues, ends and D or L forms follow the SMILES beside them.

What was measured:
[1] = tested on: lizard (Anolis carolinensis) skin melanophores; experiment: lizard skin bioassay, melanosome dispersion in vitro; type: cell-based
[2] = tested on: adenylate cyclase in Cloudman S-91 mouse melanoma tumors; conditions: [α-32P]ATP conversion to [32P]cAMP
Excerpt: ATP conversion to [^32 P]cAMP in Cloudman S-91 mouse melanoma tumors as described in Sawyer, et al., Proc. Nat. Acad. Sci. USA, 77, 5754-5758 (1980). [^32 P]cAMP was isolated, purified and detected according to Salomon, et al., Anal. Biochem., 24, pp. 18-26 (1976).

[3] = tested on: frog (Rana pipiens) skin melanophores; experiment: duration of melanosome dispersion, frog skin bioassay; type: cell-based; conditions: 5×10^-10 M, skins rinsed at 60 minutes
Procedure: The compounds of Example 1 were examined with respect to the duration of their ability to stimulate melanosome dispersion in vitro using the frog (Rana pipiens) skin bioassay.
At time zero, 5×10^-10 M of α-MSH was added to one group of frog skins and 5×10^-10 M of the test compounds were individually added to the second and third groups of skins. At time=60 minutes, skins were rinsed and transferred to Ringers solution.

[4] = cited from earlier work
[5] = tested on: frog (Rana pipiens) skin melanophores; experiment: frog skin bioassay, melanosome dispersion in vitro; type: cell-based; conditions: standard frog skin assay
Excerpt: The Example 1 compounds were examined for their biological effects on melanosome dispersion in vitro using the standard frog (Rana pipiens) skin bioassay and photo-reflectance methods. See, Hadley, et al., Science, 213, pp. 1025-1027 (1981).

Compound: [Half-Cys^4, half-Cys^10 ]-α-MSH
potency relative to the native hormone [1]: approximately thirty | maximal adenylate cyclase activity compared with α-MSH [2]: same maximal adenylate cyclase activity as α-MSH | potency relative to the native hormone [2]: approximately three

time to complete degradation to a biologically inactive compound (chymotrypsin): ≤ 5 minutes
Compound: Ac-Ser^1 -Tyr^2 -Ser^3 -Met^4 -Glu^5 -His^6 -Phe^7 -Arg^8 -Trp^9 -Gly^10 -Lys^11 -Pro^12 -Val^13 -NH2 [α-MSH]
time until activity completely reversed [3]: less than three | half-life in serum [4]: less than 2 minutes

Compound: CC(=O)N[C@H]1CSSC[C@@H](C(=O)N[C@@H](CCCCN)C(=O)N2CCC[C@H]2C(=O)N[C@H](C(N)=O)C(C)C)NC(=O)[C@H](Cc2c[nH]c3ccccc23)NC(=O)[C@H](CCCNC(=N)N)NC(=O)[C@H](Cc2ccccc2)NC(=O)[C@H](Cc2cnc[nH]2)NC(=O)[C@H](CCC(=O)O)NC1=O [acetyl-[half-Cys^4, half-Cys^10]-α-MSH4-13NH.sbsb.2] (Ac-CEHFRWCKPV-NH2; disulfide 1-7)
potency relative to the native hormone [1]: about 1.6 times

enzymatic stability compared with α-MSH (in words) (chymotrypsin): enzymatically more stable than α-MSH
Compound: [half-Cys^5, half-Cys^11 ]-α-MSH
potency compared with α-MSH (in words) [5]: less potent than α-MSH
